These results are taken from ChEMBL document CHEMBL3112479, “Synthesis and evaluation of the antimicrobial activities of 3-((5-phenyl-1,3,4-oxadiazol-2-yl)methyl)-2-thioxothiazolidin-4-one derivatives” (2014).

Experiment [1] relates to Escherichia coli. The experiment can be described thus: Antimicrobial activity against Escherichia coli KCTC 1924 after 20 hrs by two-fold serial dilution technique. Type of experiment: functional. As to conditions: KCTC 1924, 20 h.
The subject of the next experiment is Streptococcus mutans. The experiment can be described thus: Antimicrobial activity against Streptococcus mutans 3065 after 20 hrs by two-fold serial dilution technique. Type of experiment: functional. As to conditions: Streptococcus mutans, 3065, 20 h.
The test system of experiment [2] is Staphylococcus aureus. The experiment can be described thus: Antimicrobial activity against quinolone-resistant Staphylococcus aureus clinical isolate 3505 after 20 hrs by two-fold serial dilution technique. Type of experiment: functional. As to conditions: isolate 3505, 20 h.
In experiment [3] the test system is Staphylococcus aureus. The experiment can be described thus: Antimicrobial activity against methicillin-resistant Staphylococcus aureus clinical isolate 3506 after 20 hrs by two-fold serial dilution technique. The format is functional. Particulars: isolate 3506, 20 h.
In experiment [4] the test system is Salmonella typhimurium. The experiment can be described thus: Antimicrobial activity against Salmonella typhimurium 1926 after 20 hrs by two-fold serial dilution technique. Type of experiment: functional, Salmonella enterica subsp. enterica serovar Typhimurium. Particulars: Salmonella enterica, 1926, 20 h.
In experiment [5] the test system is Pseudomonas aeruginosa. Put plainly: Antimicrobial activity against Pseudomonas aeruginosa 2004 after 20 hrs by two-fold serial dilution technique. The format is functional. Particulars: Pseudomonas aeruginosa, 2004, 20 h.
In experiment [6] the test system is Staphylococcus aureus. The experiment can be described thus: Antimicrobial activity against quinolone-resistant Staphylococcus aureus clinical isolate 3519 after 20 hrs by two-fold serial dilution technique. Type of experiment: functional. As to conditions: isolate 3519, 20 h.
Experiment [7] concerns Staphylococcus aureus. Put plainly: Antimicrobial activity against Staphylococcus aureus 209 after 20 hrs by two-fold serial dilution technique. As to conditions: Staphylococcus aureus, 209, 20 h. The format is functional.
Experiment [8] relates to Escherichia coli. The experiment can be described thus: Antimicrobial activity against Escherichia coli CCARM 1356 after 20 hrs by two-fold serial dilution technique. Type of experiment: functional. Particulars: CCARM 1356, 20 h.
The test system of experiment [9] is Salmonella typhimurium. Put plainly: Antimicrobial activity against Salmonella typhimurium 2421 after 20 hrs by two-fold serial dilution technique. Particulars: Salmonella enterica, 2421, 20 h. The format is functional, Salmonella enterica subsp. enterica serovar Typhimurium.
Experiment [10] concerns Pseudomonas aeruginosa. Put plainly: Antimicrobial activity against Pseudomonas aeruginosa 2742 after 20 hrs by two-fold serial dilution technique. The format is functional. As to conditions: Pseudomonas aeruginosa, 2742, 20 h.
The test system of experiment [11] is Staphylococcus aureus. The experiment can be described thus: Antimicrobial activity against Staphylococcus aureus RN4220 after 20 hrs by two-fold serial dilution technique. Type of experiment: functional. As to conditions: RN4220, 20 h.
Experiment [12] deals with Staphylococcus aureus. The experiment can be described thus: Antimicrobial activity against Staphylococcus aureus 503 after 20 hrs by two-fold serial dilution technique. Type of experiment: functional. As to conditions: Staphylococcus aureus, 503, 20 h.
The subject of experiment [13] is Staphylococcus aureus. Put plainly: Antimicrobial activity against methicillin-resistant Staphylococcus aureus clinical isolate 3167 after 20 hrs by two-fold serial dilution technique. As to conditions: isolate 3167, 20 h. The format is functional.
For the next experiment, the system named is Candida albicans. Put plainly: Antimicrobial activity against Candida albicans 7535 after 20 hrs by two-fold serial dilution technique. Particulars: Candida albicans, 7535, 20 h. The format is functional.

Values after ≈ are worked out from the molar mass of the structure shown.

For the compound `O=C1CSC(=S)N1Cc1nnc(-c2cccc(Br)c2)o1`, the MIC (in general, the least concentration at which growth counts as inhibited) was 16 µg/mL (≈ 43.2 µM) in the experiment with Escherichia coli [1]; 16 µg/mL (≈ 43.2 µM) against Streptococcus mutans; 32 µg/mL (≈ 86.4 µM) against Staphylococcus aureus [2]; 32 µg/mL (≈ 86.4 µM) against Staphylococcus aureus [3]; 32 µg/mL (≈ 86.4 µM) in the experiment with Salmonella typhimurium [4]; greater than 128 µg/mL in the experiment on Pseudomonas aeruginosa [5]. The MIC in the experiment on Staphylococcus aureus [6] was 32 µg/mL (≈ 86.4 µM); in the experiment with Staphylococcus aureus [7], 16 µg/mL (≈ 43.2 µM); against Escherichia coli [8], greater than 128 µg/mL; with Salmonella typhimurium [9], 128 µg/mL (≈ 346 µM); in the experiment with Pseudomonas aeruginosa [10] it was greater than 128 µg/mL; in the experiment with Staphylococcus aureus [11], 32 µg/mL (≈ 86.4 µM). Moreover, the results for the MIC in the experiment on Staphylococcus aureus [12], in the experiment with Staphylococcus aureus [13] and in the experiment with Candida albicans were 32 µg/mL (≈ 86.4 µM), 16 µg/mL (≈ 43.2 µM) and 32 µg/mL (≈ 86.4 µM), respectively.
As to `Cc1cccc(-c2nnc(CN3C(=O)/C(=C/c4ccc(C(=O)O)cc4)SC3=S)o2)c1`, the minimum inhibitory concentration (MIC) with Escherichia coli [1] was greater than 128 µg/mL; against Streptococcus mutans it was 16 µg/mL (≈ 36.6 µM); against Staphylococcus aureus [2] it was 32 µg/mL (≈ 73.1 µM); in the experiment on Staphylococcus aureus [3], 32 µg/mL (≈ 73.1 µM); with Salmonella typhimurium [4], greater than 128 µg/mL; with Pseudomonas aeruginosa [5], greater than 128 µg/mL. The MIC is 32 µg/mL (≈ 73.1 µM) in the experiment on Staphylococcus aureus [6]; 32 µg/mL (≈ 73.1 µM) in the experiment on Staphylococcus aureus [7]; greater than 128 µg/mL in the experiment with Escherichia coli [8]; greater than 128 µg/mL against Salmonella typhimurium [9]; greater than 128 µg/mL with Pseudomonas aeruginosa [10]; 16 µg/mL (≈ 36.6 µM) against Staphylococcus aureus [11]. For the same compound, the MIC in the experiment with Staphylococcus aureus [12] was 32 µg/mL (≈ 73.1 µM); with Staphylococcus aureus [13], 32 µg/mL (≈ 73.1 µM); in the experiment with Candida albicans, greater than 64 µg/mL.
Consider `O=C(O)c1ccc(/C=C2\SC(=S)N(Cc3nnc(-c4cccc(Br)c4)o3)C2=O)cc1`, for which the MIC is greater than 128 µg/mL in the experiment with Escherichia coli [1]; 16 µg/mL (≈ 31.8 µM) in the experiment on Streptococcus mutans; 16 µg/mL (≈ 31.8 µM) against Staphylococcus aureus [2]; 16 µg/mL (≈ 31.8 µM) with Staphylococcus aureus [3]; greater than 128 µg/mL with Salmonella typhimurium [4]; greater than 128 µg/mL with Pseudomonas aeruginosa [5]. The MIC in the experiment on Staphylococcus aureus [6] is 16 µg/mL (≈ 31.8 µM); with Staphylococcus aureus [7], 16 µg/mL (≈ 31.8 µM); in the experiment on Escherichia coli [8], greater than 128 µg/mL; in the experiment on Salmonella typhimurium [9], greater than 128 µg/mL; in the experiment on Pseudomonas aeruginosa [10], greater than 128 µg/mL; in the experiment with Staphylococcus aureus [11], 16 µg/mL (≈ 31.8 µM). For the same compound, the MIC was 16 µg/mL (≈ 31.8 µM) with Staphylococcus aureus [12], 8 µg/mL (≈ 15.9 µM) in the experiment with Staphylococcus aureus [13] and greater than 64 µg/mL in the experiment on Candida albicans.
`O=C1CSC(=S)N1[C@@H](Cc1ccccc1)c1nnc(-c2cccc(Br)c2)o1`: the MIC is greater than 128 µg/mL in the experiment on Escherichia coli [1]; 2 µg/mL (≈ 4.34 µM) with Streptococcus mutans; 2 µg/mL (≈ 4.34 µM) in the experiment with Staphylococcus aureus [2]; 4 µg/mL (≈ 8.69 µM) against Staphylococcus aureus [3]; greater than 128 µg/mL against Salmonella typhimurium [4]; greater than 128 µg/mL against Pseudomonas aeruginosa [5]. Besides, the MIC was 4 µg/mL (≈ 8.69 µM) with Staphylococcus aureus [6]; greater than 64 µg/mL in the experiment on Staphylococcus aureus [7]; greater than 128 µg/mL in the experiment on Escherichia coli [8]; greater than 128 µg/mL against Salmonella typhimurium [9]; greater than 128 µg/mL in the experiment with Pseudomonas aeruginosa [10]; 4 µg/mL (≈ 8.69 µM) with Staphylococcus aureus [11]. The values for the MIC against Staphylococcus aureus [12], with Staphylococcus aureus [13] and with Candida albicans were greater than 64 µg/mL, 2 µg/mL (≈ 4.34 µM) and greater than 64 µg/mL, respectively.
With `O=C1CSC(=S)N1Cc1nnc(-c2ccccc2F)o1`, the MIC against Escherichia coli [1] is 32 µg/mL (≈ 103 µM); with Streptococcus mutans, 32 µg/mL (≈ 103 µM); with Staphylococcus aureus [2], 64 µg/mL (≈ 207 µM); against Staphylococcus aureus [3] it was 64 µg/mL (≈ 207 µM); against Salmonella typhimurium [4], 64 µg/mL (≈ 207 µM); against Pseudomonas aeruginosa [5], greater than 128 µg/mL. Besides, the MIC with Staphylococcus aureus [6] was 64 µg/mL (≈ 207 µM); in the experiment with Staphylococcus aureus [7], 16 µg/mL (≈ 51.7 µM); in the experiment with Escherichia coli [8], greater than 128 µg/mL; in the experiment on Salmonella typhimurium [9], 64 µg/mL (≈ 207 µM); against Pseudomonas aeruginosa [10] it was greater than 128 µg/mL; in the experiment on Staphylococcus aureus [11] it was 64 µg/mL (≈ 207 µM). In addition, the MIC with Staphylococcus aureus [12], against Staphylococcus aureus [13] and with Candida albicans was 64 µg/mL (≈ 207 µM) each time.
With `Cc1onc(-c2ccccc2)c1C(=O)N[C@@H]1C(=O)N2[C@@H]1SC(C)(C)[C@@H]2C(=O)O` [OXACILLIN], the MIC against Staphylococcus aureus [2] is 1 µg/mL (≈ 2.49 µM); in the experiment with Staphylococcus aureus [3], greater than 64 µg/mL; against Staphylococcus aureus [6], 1 µg/mL (≈ 2.49 µM); in the experiment with Staphylococcus aureus [13], greater than 64 µg/mL.
